Tested on: human monocyte-derived macrophages (hMDMs)
Assay: Seahorse extracellular flux analysis (OCR, ECAR) in hMDMs
Format: cell-based
Settings: LPS 100 ng ml^−1 + ERG240 20 mM, 3 h
Experimental: Figure 2 BCAT1 inhibition reduces oxygen consumption and glycolysis in human macrophages. (a) Real-time extracellular OCR measurements in hMDMs (left panel) that were previously treated with either LPS (100 ng ml^−1) or LPS+ERG240 (20 mM) for 3 h. OCR values were recorded following sequential treatments with glucose (5 mM), oligomycin A (0.5 μM), carbonyl cyanide 4-(trifluoromethoxy) phenyl- hydrazine (FCCP, 1 μM) and a combination of 2-deoxy-D-glucose (2-DG, 50 mM), antimycin A (1 μM) and rotenone (1 μM). Basal respiration, estimated ATP production, and maximal respiration are shown in the right panel. n=3 healthy donor hMDMs were used in 12 technical replicates. The results are representative of three independent experiments. (b) Real-time ECAR (left panel), glycolysis and glycolytic capacity (right panel). n=3 healthy donor hMDMs were used in 12 technical replicates. The results are representative of three independent experiments. (c) hMDMs were subjected to BCAT1 siRNA (si-BCAT1) or non-targeting siRNA (Si-Control) treatment, followed by LPS stimulation (3 h, 100 ng ml^−1) before measuring BCAT1 expression levels (left panel), OCR (middle panel) and ECAR (right panel). (d) Basal respiration, estimated ATP production, maximal respiration, glycolysis and glycolytic capacity in si-Control and si-BCAT1 transfected, LPS-treated hMDMs. n=4 hMDMs were used in at least five technical replicates. Error bars are s.e.m. Significance was tested using two-tailed Student’s t-test.
Real-time measurements of OCR and ECAR were performed using a Seahorse XF96 Extracellular Flux Analyzer (Seahorse Bioscience). hMDMs cultured for 5 days in presence of RPMI containing M-CSF (100 ng ml^−1) and FCS (10%) were washed and incubated with either ERG240 or LPS or a combination of both for 3 h. Cells were then washed, re-suspended using the non-enzymatic cell dissociation buffer (Sigma) and 5 × 10^5 hMDMs were seeded as a monolayer in a 96-well microplate containing XF Assay Modified DMEM. Glucose and different metabolic drugs were injected during real-time measurements of OCR and ECAR. Basal respiration was calculated as the last measurement before addition of oligomycin – non mitochondrial respiration (minimum rate measurement after Rot/AntA). Estimated ATP production designates the last measurement before addition of oligomycin – minimum rate after oligomycin. Maximal respiration is shown as the maximum rate measurement after addition of FCCP – non mitochondrial respiration (minimum rate measurement after Rot/AntA). Glycolysis refers to ECAR values before the addition of oligomycin – ECAR values before the addition of glucose. […] In RNAi experiments, hMDMs transfected with either BCAT1 siRNA or control (non-targeting) siRNA were seeded in a 96-well microplate, LPS-stimulated (100 ng ml^−1, 3 h) and real-time measurements of OCR and ECAR were recorded, as described above.

## CC(=O)C(C)CCC(=O)O (stereo not shown) [ERG240]
  basal respiration: significantly reduced
  estimated ATP production: significantly reduced
  extracellular acidification rate (ECAR): decreased
  glycolysis: significantly reduced
  glycolytic capacity: significantly reduced
  maximal respiration: significantly reduced
  oxygen consumption rate (OCR): decreased
